Laboratory results as given in PMC12866179, “Oxidized MIF is an Alzheimer’s disease drug target relaying external risk factors to tau pathology” (Cell Reports Medicine, 2025).

How the values were obtained:
HSV-1 [1] = assay: HSV-1 infection of differentiated LUHMES cells (immunocytochemistry, western blot); assay type: cell-based, HSV-1 KOS strain; conditions: infected with HSV-1
Description: 4x10^5 Vero cells, 8x10^5 SH-SY5Y or 2x10^6 differentiated LUHMES (differentiation day 6) cells were seeded into 12-well plates. After 24h the cells were treated with compounds (as indicated in the figures) and after 1h they were infected with HSV-1 applying MOIs as described in the figures. After 20h (or at indicated time points) cells were either washed twice with PBS, then lysed in cold PBS/1% NP40 including the cOmplete EDTA-free protease inhibitor cocktail (Roche) and phosphatase inhibitor cocktail (Sigma) or virus was released by freeze-thawing and ultrasonic treatment for analysis in viral plaque assay (see above). For immunocytochemistry analysis 5x10^4 LUHMES cells at differentiation day 2 were seeded on 13 mm coverslips that were coated with L-ornithine and fibronectin (see above) and placed into 24-well plates. After four additional days of differentiation the cells were infected with HSV-1 (MOI = 1). […] After the protein concentration of cell lysates and homogenates had been determined using the DC Protein Assay Kit (Bio-Rad), 20 μg of each sample were dissolved in NuPAGE LDS Sample buffer (including 2% β-mercaptoethanol), boiled at 100°C for 5 min and then separated on NuPAGE Novex 4–12% Bis-Tris midi gels (Invitrogen) using NuPAGE MES SDS Running buffer (Invitrogen). […] Signal intensities were calculated using the Image Studio Version 2.1 software (LI-COR Biosciences). […]

HSV-1 [2] = assay: Plaque assay of HSV-1-infected SH-SY5Y-tau-P301S control and MIF-knockdown cells; assay type: cell-based, HSV-1 KOS strain
Description: Virus titer determination was carried out in 25-cm^2 flasks or 6-well plates with confluent Vero cells. The virus stock was serially diluted in Medium 199. 1 mL of each of the dilutions was added to the Vero cells in duplicates and incubated for 2h. Then the inoculum was aspirated and DMEM supplemented with 5% NBCS and 7.5 μg/mL human immunoglobulin (Sigma) was added. After two days the cells were washed twice with PBS and fixed with MeOH for 5 min at RT. Then 1:10 diluted KaryoMax Giemsa stain solution (Gibco) was added to the cells and incubated for 20 min at RT. Following washing with water the plaques were counted under the microscope and the titer was calculated.
4x10^5 Vero cells, 8x10^5 SH-SY5Y or 2x10^6 differentiated LUHMES (differentiation day 6) cells were seeded into 12-well plates. After 24h the cells were treated with compounds (as indicated in the figures) and after 1h they were infected with HSV-1 applying MOIs as described in the figures. After 20h (or at indicated time points) cells were either washed twice with PBS, then lysed in cold PBS/1% NP40 including the cOmplete EDTA-free protease inhibitor cocktail (Roche) and phosphatase inhibitor cocktail (Sigma) or virus was released by freeze-thawing and ultrasonic treatment for analysis in viral plaque assay (see above).
[…] Two-wa y ANOVA (Sidak´s post-hoc) […]

Q: How did the “viral antigens (HSV-1-gC) in differentiated LUHMES cells” value (HSV-1 [1]) turn out when `CCc1cc(N2CCCC2)cc2[s+]c3cc(N4CCCC4)cc(C)c3nc12.[I-]` [PAV-174, 3,7-Di(pyrrolidine-1-yl) 1-ethyl-9-methyl-phenothiazin-5-ium iodide] was run?
A: Its value is “reduced”.

Q: What about the “HSV-1 titer-lowering effect in MIF-knockdown cells” value (HSV-1 [2]) of the same compound?
A: The value was “did not exert comparable titer-lowering effects”.
